According to patent EP1902732A1, “PROPHYLACTIC/THERAPEUTIC AGENT FOR HER2-EXPRESSING CANCER” (Takeda Pharmaceutical Company Limited, priority 2005, dated 2006):

Columns and labels:
HER2 [1] = assay: Western blotting of phosphorylated HER2 in SK-BR-3 cells; format: cell-based, human; conditions: Example 4, medium glucose 0.1 mg/mL, 5 mg/mL, two hours
Experimental: (§1) HER2-expressing human cancer cell line SK-BR-3 (purchased from ATCC) was seeded into a 24-multiwell plate (4.0 x 10^5 cells/well) and cultured overnight in a carbon dioxide gas incubator (5% CO2, 37°C). Then, the medium was exchanged for a medium with a glucose content of 0.1 mg/mL and cultured for another 2 hours. A glucose antimetabolite 2-deoxyglucose was added to a final concentration of 5 mg/mL. Two hours later, the broth was removed and the cells were lysed with an SDS sample buffer (200 µL). This cell lysate (8 µL) was separated by an SDS-PAGE method (gel concentration: 7.5-15%) (Shagger et al., Analytical Biochemistry, No. 166, pp. 368-379, 1987). Then, western blotting analysis was performed in the same manner as in Example 1 to detect phosphorylated HER2, phosphorylated Akt and phosphorylated MAPK.

Akt [2] = assay: Western blotting of phosphorylated Akt in SK-BR-3 cells; format: cell-based, human; conditions: Example 4, medium glucose 0.1 mg/mL, 5 mg/mL, two hours
Experimental: as §1

MAPK [3] = assay: Western blotting of phosphorylated MAPK in SK-BR-3 cells; format: cell-based, human; conditions: Example 4, medium glucose 0.1 mg/mL, 5 mg/mL, two hours
Experimental: as §1

HER2 [4] = assay: Western blotting of phosphorylated HER2 in BT-474 cells; format: cell-based, human
Experimental: (§2) Human HER2-expressing human breast cancer cell line BT-474 (purchased from American Tissue Culture Collection (ATCC)) was seeded into a 24-multiwell plate (BT-474: 1.2 x 10^5 cells/well), and cultured overnight in a carbon dioxide gas incubator (5% CO2, 37°C). A 4-fold dilution series of a mitochondrial respiratory chain complex inhibiting compound (complex I: rotenone, complex III: antimycin, complex V: oligomycin: Wako Pure Chemical Industries) was added starting from a final concentration of 1 µmol/L in 5 steps while continuing culture. After 2 hours, the broth was removed, and the cells were lysed with an SDS sample buffer (200 µL). Western blotting analysis was performed as follows. Specifically, this cell lysate (8 µL) was separated by an SDS-PAGE method (gel concentration: 7.5-15%) (Analytical Biochemistry, No. 166, pp. 368-379, 1987), and transferred to a nitrocellulose membrane (BioRad). Then, an antibody specific to phosphorylated HER2 (Cell signaling technology, Code# 2244), an anti-phosphorylated Akt antibody specific to downstream antiapoptotic signal transducing molecule Akt (Cell signaling technology, Code# 9271) and an anti-phosphorylated MAPK antibody specific to downstream proliferation signal transducing molecule MAPK (Cell signaling technology, Code# 9101) were used to detect the antibody with an ECL system (Amersham) to quantify the amount of phosphorylated protein by an image analysis.
(§3) Human HER2-expressing human cancer cell line BT-474 (purchased from ATCC) was seeded into a 24-multiwell plate (1.2 x 10^5 cells/well) and cultured overnight in a carbon dioxide gas incubator (20% O2, 5% CO2, 37°C). A 3-fold dilution series of metformin that activates AMPK (The Journal of Biological Chemistry, Vol. 279, No. 42, pp. 43940-43951, 2004) was added starting from a final concentration of 15 mmol/L in 5 steps while continuing culture. Two hours later, the broth was removed and the cells were lysed with an SDS sample buffer (200 µL). This cell lysate (8 µL) was separated by an SDS-PAGE method (gel concentration: 7.5-15%) (Analytical Biochemistry, No. 166, pp. 368-379, 1987). Then, western blotting analysis was performed in the same manner as in Example 1 to quantify phosphorylated HER2, phosphorylated Akt and phosphorylated MAPK.
Human HER2-expressing human breast cancer cell line BT-474 (purchased from American Tissue Culture Collection (ATCC)) was seeded into a 24-multiwell plate (BT-474: 1.2 x 10^5 cells/well), and cultured overnight in a carbon dioxide gas incubator (5% CO2, 37°C). Mitochondrial respiratory chain complex 1-inhibiting compound rotenone (Wako Pure Chemical Industries) was added in 5 steps at final concentrations of 1, 0.333, 0.111, 0.033 and 0.011 µmol/L while continuing culture. Two hours later, the broth was removed and the cells were lysed with an SDS sample buffer (200 µL). Then, this cell lysate was used to perform western blotting analysis. Specifically, this cell lysate (8 µL) was separated by an SDS-PAGE method (gel concentration: 7.5-15%) (Analytical Biochemistry, No. 166, pp. 368-379, 1987) and transferred to a nitrocellulose membrane (BioRad). Then, an antibody specific to phosphorylated HER2 (Cell signaling technology, Code# 2244), an AMPK antibody specific to AMPK (Cell signaling technology, Code# 2535) and an anti-phosphorylated AMPK antibody specific to phosphorylated AMPK (Cell signaling technology, Code# 2532) were used to detect the antibody by chemiluminescent detection with an ECL system (Amersham) to quantify an amount of phosphorylated protein with LAS-1000 plus image analysis device (FUJIFILM).
Human HER2-expressing human breast cancer cell line BT-474 (purchased from American Tissue Culture Collection (ATCC)) was seeded into a 24-multiwell plate (BT-474: 1.2 x 10^5 cells/well) and cultured overnight in a carbon dioxide gas incubator (5% CO2, 37°C). […]

Akt [5] = assay: Western blotting of phosphorylated Akt in BT-474 cells; format: cell-based, human
Experimental: as §2, §3

MAPK [6] = assay: Western blotting of phosphorylated MAPK in BT-474 cells; format: cell-based, human
Experimental: as §2, §3

[7] = system: BT-474 breast cancer cell; assay: Viable cell count using Cell Counting Kit-F; format: cell-based, human; conditions: five days of culture
Experimental: (§4) BT-474 breast cancer cell, MDA-MB-453 breast cancer cell, A549 non-small cell lung cancer cell and LNCaP prostate cancer cell were used as human HER2-expressing cells while MDA-MB-231 breast cancer cell and A498 kidney cancer cell (all purchased from ATCC) were used as HER2-nonexpressing cells. Each of the cells used had been seeded into a 96-plate at 500cells/150 µL/well and cultured overnight. Each of the compounds, i.e., antimycin (final concentrations: 1, 0.1, 0.01 and 0.001 µmol/L), 2,4-dinitrophenol (final concentrations: 0.6, 0.2, 0.06 and 0.02 mmol/L), metformin (final concentrations: 25, 5, 1 and 0.2 mmol/L) and AICAR (final concentrations: 25, 5, 1 and 0.2 mmol/L) was diluted with a medium and added for 50 µL/well at a time to the final concentrations mentioned above. Following five days of culture at 37°C in 5% CO2, the cells were counted using Cell Counting Kit-F (Dojindo Laboratories).
(§5) Viable cell count using Cell Counting Kit-F was carried out by the following method according to the attached instruction. The supernatant was removed from the 96-well plate after five days of culture. Cell Counting Kit-F diluted 1000-fold with an RPMI medium (phenol red-free, serum-free) was added for 100 µL/well at a time. After 30 minutes of reaction at room temperature, fluorescence (excitation wavelength; 480 nm, fluorescent wavelength; 530 nm) was determined with a fluorescent plate reader.
(§6) From the determination results, percentage of the fluorescence level in the wells added with the compound was determined assuming that the fluorescence level in the wells without the addition of the compound (control) is 100%, and the remaining cellular quantity was determined in % with respect to that of the control.
(§7) BT-474 breast cancer cell, MDA-MB-453 breast cancer cell and LNCaP prostate cancer cell were used as human HER2-expressing cells while MDA-MB-231 breast cancer cell and A498 kidney cancer cell (all purchased from ATCC) were used as HER2-nonexpressing cells. Each of the cells used had been seeded into a 96-well plate at 500 cells/150 µL/well and cultured overnight. Troglitazone (final concentrations: 25, 6.25 and 1.56 µmol/L) was diluted with a medium, and added for 50 µL/well at a time to the final concentrations mentioned above. Following five days of culture at 37°C in 5% CO2, the cells were counted using Cell Counting Kit-F (Dojindo Laboratories).
as §6, with “troglitazone” for “the compound”

[8] = system: LNCaP prostate cancer cell; assay: Viable cell count using Cell Counting Kit-F; format: cell-based, human; conditions: five days of culture
Experimental: as §4, §5, §6, §7
as §6, with “troglitazone” for “the compound”

[9] = system: MDA-MB-453 breast cancer cell; assay: Viable cell count using Cell Counting Kit-F; format: cell-based, human; conditions: five days of culture
Experimental: as §4, §5, §6, §7
as §6, with “troglitazone” for “the compound”

[10] = system: A549 non-small cell lung cancer cell; assay: Viable cell count using Cell Counting Kit-F; format: cell-based, human; conditions: HER2-expressing cancer, five days of culture
Experimental: as §4, §5, §6

DU145 = assay: Viable cell count using Cell Counting Kit-F; format: cell-based; conditions: HER2-nonexpressing cancer, five days of culture
A498 kidney cancer cell = assay: Viable cell count using Cell Counting Kit-F; format: cell-based; conditions: five days of culture
Experimental: as §4, §5, §6, §7
as §6, with “troglitazone” for “the compound”

[11] = system: MDA-MB-231 breast cancer cell; assay: Viable cell count using Cell Counting Kit-F; format: cell-based; conditions: five days of culture
Experimental: as §4, §5, §6, §7
as §6, with “troglitazone” for “the compound”

[12] = system: phosphorylated acetyl-CoA carboxylase (ACC); assay: Western blotting of phosphorylated ACC in BT-474 cells; format: cell-based, human; conditions: Example 7, two hours, antimycin 1-0.01 nmol/L, oligomycin 100-1 ng/mL, 2,4-dinitrophenol 300-3 µmol/L
Experimental: (§8) Human HER2-expressing human breast cancer cell line BT-474 (purchased from American Tissue Culture Collection (ATCC)) was seeded into a 24-multiwell plate (BT-474: 1.2 x 10^5 cells/well) and cultured overnight in a carbon dioxide gas incubator (5% CO2, 37°C). As an energy metabolism inhibitor having a mechanism that differed from that of rotenone, mitochondrial respiratory chain complex III-inhibiting compound antimycin (Wako Pure Chemical Industries) was added to final concentrations of 1, 0.3, 0.1, 0.03 and 0.01 nmol/L while continuing culture. Using another plate, mitochondrial respiratory chain complex V-inhibiting compound oligomycin (Wako Pure Chemical Industries) was added to final concentrations of 100, 30, 10, 3 and 1 ng/mL while continuing culture. In addition, 2,4-dinitrophenol was added to 300, 100, 30, 10 and 3 µmol/L while continuing culture. Two hours after the addition of the agent, the broth was removed and the cells were lysed with an SDS sample buffer (200 µL). Then, this cell lysate was used to perform western blotting analysis. Specifically, this cell lysate (8 µL) was separated by an SDS-PAGE method (gel concentration: 7.5-15%) (Analytical Biochemistry, No. 166, pp. 368-379, 1987) and transferred onto a nitrocellulose membrane (BioRad). Then, an antibody specific to phosphorylated HER2 (Cell signaling technology, Code# 2244), pACC antibody specific to phosphorylated acetyl-CoA carboxylase (ACC) (Cell signaling technology, Code# 3661) and anti-phosphorylated S6K antibody specific to phosphorylated S6 kinase (S6K) (Cell signaling technology, Code# 9209) were used to detect the antibody by chemiluminescent detection with an ECL system (Amersham) to quantify an amount of phosphorylated protein with LAS-1000 plus image analysis device (FUJIFILM).

[13] = system: phosphorylated S6 kinase (S6K); assay: Western blotting of phosphorylated S6K in BT-474 cells; format: cell-based, human; conditions: Example 7, two hours, antimycin 1-0.01 nmol/L, oligomycin 100-1 ng/mL, 2,4-dinitrophenol 300-3 µmol/L
Experimental: as §8

[14] = Example 5, 3-fold dilution series from 15 mmol/L in 5 steps, two hours
[15] = Example 2, 4-fold dilution series from 1 µmol/L in 5 steps, 2 hours

Structure (SMILES): O=CC[C@@H](O)[C@H](O)[C@H](O)CO [2-deoxyglucose]
- HER2 phosphorylation (HER2 [1]): suppressed phosphorylation of each protein
- Akt phosphorylation (Akt [2]): suppressed phosphorylation of each protein
- MAPK phosphorylation (MAPK [3]): suppressed phosphorylation of each protein

Structure (SMILES): CN(C)C(=N)N=C(N)N [metformin]
- HER2 phosphorylation (HER2 [4]; [14]): concentration-dependent suppression of HER2 phosphorylation
- Akt phosphorylation (Akt [5]; [14]): suppressions of Akt and MAPK phosphorylations were also confirmed
- MAPK phosphorylation (MAPK [6]; [14]): suppressions of Akt and MAPK phosphorylations were also confirmed
- minimum concentrations for inhibiting cell proliferation for 50% or more ([7]; BT474, HER2-expressing cancer): 1 mmol/L
- minimum concentrations for inhibiting cell proliferation for 50% or more ([8]; LNCaP, HER2-expressing cancer): 1 mmol/L
- minimum concentrations for inhibiting cell proliferation for 50% or more ([9]; MB453, HER2-expressing cancer): 1 mmol/L
- minimum concentrations for inhibiting cell proliferation for 50% or more [10]: 5 mmol/L
- minimum concentrations for inhibiting cell proliferation for 50% or more (DU145): >25 mmol/L
- minimum concentrations for inhibiting cell proliferation for 50% or more (A498 kidney cancer cell; A498, HER2-nonexpressing cancer): >25 mmol/L
- minimum concentrations for inhibiting cell proliferation for 50% or more ([11]; MB231, HER2-nonexpressing cancer): >25 mmol/L

Structure (SMILES): CC[C@H]1/C=C/C=C/C[C@@H](C)[C@H](O)[C@@](C)(O)C(=O)[C@@H](C)[C@H](O)[C@@H](C)C(=O)[C@@H](C)[C@H](O)[C@@H](C)/C=C/C(=O)O[C@@H]2[C@H](C)[C@H](CC1)O[C@]1(CC[C@H](C)[C@H](C[C@@H](C)O)O1)[C@H]2C [oligomycin]
- HER2 phosphorylation (HER2 [4]; [15]): suppression of HER2 phosphorylation was confirmed
- HER2 phosphorylation (HER2 [4]; Example 7, two hours, antimycin 1-0.01 nmol/L, oligomycin 100-1 ng/mL, 2,4-dinitrophenol 300-3 µmol/L): decreased dose-dependently
- Akt phosphorylation (Akt [5]; [15]): suppressions of Akt and MAPK phosphorylations were also confirmed
- MAPK phosphorylation (MAPK [6]; [15]): suppressions of Akt and MAPK phosphorylations were also confirmed
- phosphorylation of ACC [12]: increased dose-dependently
- phosphorylation of S6K [13]: suppressed

Structure (SMILES): Cc1c(C)c2c(c(C)c1O)CCC(C)(COc1ccc(CC3SC(=O)NC3=O)cc1)O2 (stereo not drawn) [troglitazone]
- inhibition at 25 µM ([7]; Homo sapiens, BT-474, 120 h, BT474 cell, 25 µmol/L, read-out: proliferation inhibited to (remaining cellular quantity in % with respect to that of the control)): 50%
- inhibition at 25 µM ([8]; Homo sapiens, 120 h, LNCaP cell, 25 µmol/L, read-out: proliferation inhibited to (remaining cellular quantity in % with respect to that of the control)): 48%
- inhibition at 25 µM ([9]; Homo sapiens, MDA-MB-453, 120 h, MB453 cell, 25 µmol/L, read-out: proliferation inhibited to (remaining cellular quantity in % with respect to that of the control)): 25%
- inhibition at 25 µM (A498 kidney cancer cell; Homo sapiens, 120 h, A498 cell, HER2-nonexpressing, 25 µmol/L, read-out: proliferation inhibited to (remaining cellular quantity in % with respect to that of the control)): 105%
- inhibition at 25 µM ([11]; Homo sapiens, 120 h, MDA-MB-231 cell, HER2-nonexpressing, 25 µmol/L, read-out: proliferation inhibited to (remaining cellular quantity in % with respect to that of the control)): 100%
